Experimental data reported in US9371363B2, “Peptides and their use” (Novabiotics Limited, priority 2007, dated 2016).
Where no end group is shown, it is not given here.

What was measured:
Type in all cases: cell-based
E. coli = tested on: E. coli
Experimental: (§1) Broth Dilution Antibacterial Susceptibility Testing
(§2) The sensitivity of relevant bacterial strains to the peptides (was determined using Clinical Laboratory Standard Institute (CLSI; formerly NCCLS) Approved Standards. Bacterial susceptibility was tested using “Methods for Dilution Antimicrobial Susceptibility Tests for Bacteria That Grow […]; Approved Standard—Seventh Edition M7-A7”

S. aureus = tested on: S. aureus
Experimental: as §1, §2

P. acnes = tested on: P. acnes
Experimental: as §1, §2

Ps. aeruginosa = details: Ps. aeruginosa; CLSI broth dilution
Experimental: as §1, §2

Str. pyogenes = tested on: Str. pyogenes
Experimental: as §1, §2

Row | Compound | Minimum Inhibitory Concentration, antimicrobial activity, E. coli (E. coli) [mM] | Minimum Inhibitory Concentration, antimicrobial activity, S. aureus (S. aureus) [mM] | Minimum Inhibitory Concentration, antimicrobial activity, P. acnes (P. acnes) [mM] | Minimum Inhibitory Concentration, antimicrobial activity, Ps. aeruginosa (Ps. aeruginosa) [mM] | Minimum Inhibitory Concentration, antimicrobial activity, Str. pyogenes (Str. pyogenes) [mM]
1 | N=C(N)NCCC[C@H](NC(=O)[C@H](CCCNC(=N)N)NC(=O)[C@H](CCCNC(=N)N)NC(=O)[C@H](CCCNC(=N)N)NC(=O)[C@H](CCCNC(=N)N)NC(=O)[C@H](CCCNC(=N)N)NC(=O)[C@@H](N)CCCNC(=N)N)C(=O)O [NP105, RRRRRRR (SEQ ID NO: 23)] | >2 | >2 | – | – | –
2 | CC(=O)N[C@H](CCCNC(=N)N)C(=O)N[C@H](CCCNC(=N)N)C(=O)N[C@H](CCCNC(=N)N)C(=O)N[C@H](CCCNC(=N)N)C(=O)N[C@H](CCCNC(=N)N)C(=O)N[C@H](CCCNC(=N)N)C(=O)N[C@H](CCCNC(=N)N)C(=O)N[C@H](CCCNC(=N)N)C(=O)N[C@H](CCCNC(=N)N)C(=O)N[C@H](CCCNC(=N)N)C(=O)N[C@H](CCCNC(=N)N)C(=O)N[C@H](CCCNC(=N)N)C(=O)N[C@H](CCCNC(=N)N)C(N)=O [NP340, Ac-dRdRdRdRdRdRdRdRdRdRdRdRdR—NH2 (SEQ ID NO: 31)] | – | 0.25 | 0.02 | 0.125 | –
3 | KKKKKKK [NP104, KKKKKKK (SEQ ID NO: 35)] | >2 | >2 | – | – | 1
